According to patent US5436260A, “Angiotensin II receptor antagonists” (Warner-Lambert Company, priority 1994, dated 1995):
Counter-ions that a name gives are not always drawn.

Each compound was assayed on renal hypertensive rats (assay: blood pressure lowering in renal hypertensive rats (2-kidney, 1-clip Goldblatt model)). Settings: single oral dose of 30 mg/kg, renal hypertensive rat.
Assay type: in vivo
Description: Finally, the compounds of Formula I were tested in vivo for blood pressure lowering effects in renal hypertensive rats (2-kidney, 1-clip Goldblatt model) according to the method described by S. Sen, et al, in Hypertension 1979;1:427-34 and in Clin. Soc. 1979;57:53-62.
Illustrative of the in vivo antihypertensive activity for compounds of Formula I or Ia is the data for Example 1a. This compound lowers blood pressure by ≥50 mm Hg and is efficacious for more than 24 hours with a single oral dose of 100 mg/kg in the renal hypertensive rat. Furthermore Example 73 lowers blood pressure by ≥30 mm Hg and is efficacious for more than 24 hours with a single oral dose of 30 mg/kg in the renal hypertensive rat.

Row | Compound | efficacious for (duration) | lowers blood pressure by
1 | CCCCc1ncc(/C=C2/C(=O)N(CCCC)C(=O)N2CCCC)n1Cc1ccc(C(=O)O)cc1 [Example 73, Z-4-[[2-butyl-5-[(1,3-dibutyl-2,5-dioxo-4-imidazolidinylidene)methyl]-1H-imidazol-1-yl]methyl]benzoic acid] | more than 24 hours | ≥ 30 mm Hg

Same assay, conditions: single oral dose of 100 mg/kg, renal hypertensive rat

Row | Compound | lowers blood pressure by
2 | CCCCc1ncc(/C=C2\C(=O)NC(=O)N2CCCC)n1Cc1ccc(C(=O)O)cc1 [Example 1a, (E)-4-[[2-Butyl-5-[(3-butyl-2,5-dioxo-4-imidazolidinylidene)methyl]-1H-imidazol-1-yl]methyl]benzoic acid] | ≥ 50 mm Hg

These compounds were tested against T1, AT1 receptor (Rattus norvegicus, UniProt P25095) (assay: [^3 H]angiotensin II binding to rat liver membranes (AT1 test)). Settings: inhibition of [^3 H]angiotensin II binding.
T1 construct: rat liver membranes; from tissue; host or cells: rat liver membranes
T1 sequence (P25095 1-359): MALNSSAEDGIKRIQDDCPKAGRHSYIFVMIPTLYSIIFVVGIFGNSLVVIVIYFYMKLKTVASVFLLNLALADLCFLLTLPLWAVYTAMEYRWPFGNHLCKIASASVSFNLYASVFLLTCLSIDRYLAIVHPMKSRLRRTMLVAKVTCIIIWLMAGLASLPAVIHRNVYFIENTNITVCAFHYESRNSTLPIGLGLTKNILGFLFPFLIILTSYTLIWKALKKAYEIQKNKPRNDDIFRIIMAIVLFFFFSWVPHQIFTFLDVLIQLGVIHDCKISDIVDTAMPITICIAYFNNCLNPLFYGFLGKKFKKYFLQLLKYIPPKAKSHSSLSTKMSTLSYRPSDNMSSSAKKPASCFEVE
Summary of the method: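 Inhibition of [^3 H]angiotensin II binding to rat liver membranes, run by the Dudley et al. 1990 method.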

Row | Compound | IC50
3 | CCCCc1ncc(/C=C2/C(=O)N(CCCC)C(=O)N2CCCC)n1Cc1ccc(C(=O)O)cc1 [Example 73, Z-4-[[2-butyl-5-[(1,3-dibutyl-2,5-dioxo-4-imidazolidinylidene)methyl]-1H-imidazol-1-yl]methyl]benzoic acid] | 1.3 nM
4 | CCCCc1nc(Br)c(/C=C2/C(=O)NC(=O)N2CCCC)n1Cc1ccc(-c2ccccc2C(=O)OC)cc1 [Example 97a, Methyl Z-4'-[[4-bromo-2-butyl-5-[(3-butyl-2,5-dioxo-4-imidazolidinylidene)methyl]-1H-imidazol-1-yl]methyl][1,1'-biphenyl]-2-carboxylate] | 700 nM
5 | CCCCc1nc(Br)c(/C=C2\C(=O)NC(=O)N2CCCC)n1Cc1ccc(-c2ccccc2C(=O)OC)cc1 [Example 97b, Methyl E-4'-[[4-bromo-2-butyl-5-[(3-butyl-2,5-dioxo-4-imidazolidinylidene)methyl]-1H-imidazol-1-yl]methyl][1,1'-biphenyl]-2-carboxylate] | 500 nM
6 | CCCCc1ncc(/C=C(/C(=O)O)N(CCCC)C(=O)NCOC)n1Cc1ccc(C(=O)OC)cc1 [Example 98] | 377 nM
7 | CCCCc1ncc(/C=C2/C(=O)N(CCCC)C(=O)N2Cc2nccn2Cc2ccccc2)n1Cc1ccc(C(=O)OC)cc1 [Example 99] | 135 nM
8 | CCCCc1ncc(/C=C2/C(=O)N(CO)C(=O)N2Cc2csc(C)n2)n1Cc1ccc(C(=O)OC)cc1 [Example 101, Methyl Z-4-[[2-butyl-5-[[1-(hydroxymethyl)-3-[(2-methyl-4-thiazolyl)methyl]-2,5-dioxo-4-imidazolidinylidene]methyl]-1H-imidazol-1-yl]methyl]benzoatedihydrochloride] | 35.7 nM
9 | CCCCc1ncc(/C=C2/C(=O)N(CCCC)C(=O)N2Cc2ccc(-c3ccccc3)cc2)n1Cc1ccc(C(=O)OC)cc1 [Example 102, Methyl Z-4-[[5-[[3-[(1,1'-biphenyl)-4-ylmethyl]-1-butyl-2,5-dioxo-4-imidazolidinylidene]methyl]-2-butyl-1H-imidazol-1-yl]methyl]benzoate] | > 1000 nM
10 | CCCCc1ncc(/C=C2/C(=O)N(CCCC)C(=O)N2CC(=O)c2cccs2)n1Cc1ccc(C(=O)OC)cc1 [Example 103, Methyl Z-4-[[2-butyl-5-[[1-butyl-2,5-dioxo-3-[2-oxo-2-(2-thienyl)ethyl]-4-imidazolidinylidene]methyl]-1H-imidazol-1-yl]methyl]benzoate monochloride] | 120 nM
11 | CCCCc1ncc(/C=C2/C(=O)N(CCCC)C(=O)N2CC(=O)c2ccccc2)n1Cc1ccc(C(=O)OC)cc1 [Example 104, Methyl Z-4-[[2-butyl-5-[[1-butyl-2,5-dioxo-3-(2-oxo-2-phenylethyl)-4-imidazolidinylidene]methyl]-1H-imidazol-1-yl]methyl]benzoate monohydrochloride] | > 1000 nM
12 | CCCCc1ncc(/C=C2/C(=O)N(Cc3cccs3)C(=O)N2Cc2cccs2)n1Cc1ccc(C(=O)O)cc1 [Example 105, Z-4-[[2-Butyl-5-[[2,5-dioxo-1,3-bis(2-thienylmethyl)-4-imidazolidinylidene]methyl]-1H-imidazol-1-yl]methyl]benzoic acid] | 1.47 nM
13 | CCCCc1ncc(/C=C2/C(=O)N(CCCC)C(=O)N2Cc2ccno2)n1Cc1ccc(C(=O)OC)cc1 [Example 106, Methyl Z-4-[[2-butyl-5-[[1-butyl-3-(5-isoxazolyl-methyl)-2,5-dioxo-4-imidazolidinylidene]methyl]-1H-imidazol-1-yl]methyl]benzoate monohydrochloride] | 10.1 nM

Now from value to compound:

Row | IC50 | Compound
14 | 1450 nM | CCCCc1ncc(/C=C2\NC(=O)N(CCCC(F)(F)F)C2=O)n1Cc1ccc(C(=O)OC)cc1 [Example 107, Methyl Z-4-[[2-butyl-5-[[2,5-dioxo-4,4,4,-(trifluorobutyl)-4-imidazolidinylidene]methyl]-1H-imidazol-1-yl]methyl]benzoate]
15 | 8.47 nM | CCCCc1ncc(/C=C2/C(=O)N(CCCC)C(=O)N2Cc2cc(C)on2)n1Cc1ccc(C(=O)OC)cc1 [Example 108, Methyl Z-4-[[2-butyl-5-[[1-butyl-3-[(5-methyl-3-isoxazolyl)methyl]-2,5-dioxo-4-imidazolidinylidene]methyl]-1H-imidazol-1-yl]methyl]benzoate]
16 | 11.1 nM | CCCCc1ncc(/C=C2/C(=O)N(CC)C(=O)N2Cc2csc(C)n2)n1Cc1ccc(C(=O)OC)cc1 [Example 109, Methyl Z-4-[[2-butyl-5-[[1-ethyl-3-[(2-methyl-4-thiazolyl)methyl]-2,5-dioxo-4-imidazolidinylidene]methyl]-1H-imidazol-1-yl]methyl]benzoate dihydrochloride]
17 | 2.47 nM | CCCCc1ncc(/C=C2/C(=O)N(CCCC)C(=O)N2Cc2csc(C)n2)n1Cc1ccc(C(=O)OC)cc1Cl [Example 110, Methyl Z-4-[[2-butyl-5-[[1-butyl-3-[(2-methyl-4-thiazolyl)methyl]-2,5-dioxo-4-imidazolidinylidene[methyl]-1H-imidazol-1-yl]methyl]-3chloro benzoatemonohydrochloride]
18 | 70 nM | CCCCc1ncc(/C=C2/C(=O)N(CCCC(F)(F)F)C(=O)N2Cc2csc(C)n2)n1Cc1ccc(C(=O)OC)cc1 [Example 111, Methyl Z-4-[[2-Butyl-5-[[3-[(2-methyl-4-thiazoyl)methyl]-2,5-dioxo-1-(4,4,4-trifluorobutyl)-4-imidazolidinylidene]methyl]-1H-imidazol-1-yl]methyl]benzoate dihydrochloride]
19 | 6.44 nM | CCCCc1ncc(/C=C2/C(=O)N(CCCC)C(=O)N2CCCC(F)(F)F)n1Cc1ccc(C(=O)OC)cc1 [Example 112, Methyl Z-4-[[2-butyl-5-[[1-butyl-2,5-dioxo-3-(4,4,4-trifluorobutyl)-4-imidazolidinylidene]methyl]-1H-imidazol-1-yl]methyl]benzoate dihydrochloride]
20 | 18.3 nM | CCCCc1ncc(/C=C2/C(=O)N(CCCC(F)(F)F)C(=O)N2CCCC(F)(F)F)n1Cc1ccc(C(=O)OC)cc1 [Example 113, dihydrochloride]
